Data set [1] in a line: Bleeding: ability to dissolve in a dispersion medium (optical density of supernatant). Particulars: supernatant absorbance 400 to 800 nm, bleeds when O.D. >1.5; for Bleeding in oil (triglycerides), O.D.: 1% by weight compound in caprylic/capric acid triglycerides; for Bleeding in water, O.D.: 1% by weight compound in water + 1% Polysorbate 20. In kind it is physicochemical. The method, then: 3/Bleeding: Ability to Dissolve in a Dispersion Medium
A dispersion was prepared comprising 1% by weight of test compound in an oil (caprylic/capric acid triglycerides).
A dispersion was also prepared comprising 1% by weight of test compound in a mixture of water and 1% by weight of wetting agent (Polysorbate 20).
The mixture was stirred for 10 minutes using a magnetic bar. 10 g of dispersion were weighed out and placed in centrifuge tubes. This material was centrifuged for 30 minutes at 3000 rpm.
The supernatant liquid was taken up and the optical density was determined by measuring the absorbence on a spectrophotometer from 400 to 800 nm, at a speed of 240 nm/min.
The compound was considered to bleed when the optical density was greater than 1.5.

Data set [2] is described as follows: Photochemical stability (SUNTEST CPS, colour difference before/after). In kind it is physicochemical. Particulars: compacted pure compound, SUNTEST CPS one hour, 765 watts/m^2; UV-unstable when ΔE >6. As to the method:
4/Photochemical Stability
The UV stability was carried out by leaving the compacted pure test compound (100 bar, FAP crucible) in the SUNTEST CPS for one hour. The SUNTEST CPS is an apparatus sold by Heraeus. […] The apparatus was used at 765 watts/m^2 and emits UVA, UVB, and visible light over a range of 300 to 800 nm.
The difference in colour ΔE before and after the SUNTEST was measured by colorimetry.
The compound was considered as UV-unstable when the ΔE was >6.

Each structure is given as a SMILES string.

The melting point is the temperature, or range, at which the solid turns liquid. In turn, `COc1ccc2c(ccc3oc4c(c32)C(=O)c2ccccc2C4=O)c1` [3-methoxydinaphtho-(2,1-b:2′,3′-d)furan-8,13-dione] had a melting point of 292.1 °C. For the same compound, in data set [1], the “Bleeding in oil (triglycerides), O.D.” value is on record as “O.D. = 0.88” and the “Bleeding in water, O.D.” value is recorded as “O.D. = 0.04”. The “Photochemical stability ΔE” value in data set [2] is listed as “ΔE = 0.81”.
Consider `O=C1c2ccccc2C(=O)c2c1oc1c2ccc2ccccc21` [Dinaphtho(1,2-b:2′,3′-d)furan-7,12-dione, dinaphtho(1,2-b:2′,3′-d)furan-7,12-dione], for which the “Bleeding in water, O.D.” value in data set [1] is listed as “O.D. = 0.13”. The “Photochemical stability ΔE” value in data set [2] is recorded as “ΔE = 3.91”.
The corresponding values for `O=C1c2ccccc2C(=O)c2c1oc1cc(O)c3ccccc3c21` [5-hydroxydinaphtho(2,1-b:2′,3′-d)furan-8,13-dione] are “O.D. = 0.16” and “ΔE = 0.10”.
On to `O=C1c2ccccc2C(=O)c2c1oc1ccc3cc(Br)ccc3c21` [3-bromodinaphtho(2,1-b:-2′,3′-d)furan-8,13-dione], for which, in data set [1], the “Bleeding in oil (triglycerides), O.D.” value was “O.D. = 0.92” and the “Bleeding in water, O.D.” value is given as “O.D. = 0.03”. Moreover, the “Photochemical stability ΔE” value in data set [2] is reported as “ΔE = 2.61”.
On to `CCCCCCOc1cc2c3c(oc2c2ccccc12)C(=O)c1ccccc1C3=O` [5-hexyloxydinaphtho-(1,2-b:2′,3′-d)furan-7,12-dione], for which the melting point was 173.9 °C. Besides, the “Bleeding in water, O.D.” value in data set [1] was “O.D. = 0.29”. In data set [2], the “Photochemical stability ΔE” value is “ΔE = 0.91”.
For `O=S(=O)([O-])c1ccc(N=Nc2c(O)ccc3cc(S(=O)(=O)[O-])ccc23)cc1.[Na+].[Na+]` [FD&C Yellow No. 6, reference compound], the “Bleeding in water, O.D.” value in data set [1] is listed as “O.D. = 0.58”. In addition, the “Photochemical stability ΔE” value in data set [2] is reported as “ΔE = 10.06”.
Take `O=C(O)c1nn(-c2ccc(S(=O)(=O)O)cc2)c(O)c1N=Nc1ccc(S(=O)(=O)O)cc1` [FD&C Yellow No. 5, reference compound]: the “Bleeding in water, O.D.” value in data set [1] is on record as “O.D. = 0.08”. Further, in data set [2], the “Photochemical stability ΔE” value was “ΔE = 6.63”.
In the same order, the values of `O=C1c2ccccc2C(=O)c2c1oc1c2ccc2ccc(O)cc21` [2-Hydroxy-dinaphtho(1,2-b:2′,3′-d)furan-7,12-dione] are “O.D. = 0.23” and “ΔE = 1.32”.
Take `COc1ccc2ccc3oc4c(c3c2c1)C(=O)c1ccccc1C4=O` [2-methoxydinaphtho-(2,1-b:2′,3′-d)furan-8,13-dione]: the “Bleeding in water, O.D.” value in data set [1] is “O.D. = 0.30”. Further, the “Photochemical stability ΔE” value in data set [2] is reported as “ΔE = 0.28”.
In the case of `CCOc1cc2c3c(oc2c2ccccc12)C(=O)c1ccccc1C3=O` [5-ethoxydinaphtho(1,2-b:2′,3′-d)furan-7,12-dione], the “Bleeding in water, O.D.” value in data set [1] was “O.D. = 0.27”. The “Photochemical stability ΔE” value in data set [2] is on record as “ΔE = 0.24”.
`O=C1c2ccccc2C(=O)c2c1oc1ccc3ccccc3c21` [Dinaphtho(2,1-b:2′,3′-d)furan-8,13-dione, dinaphtho(2,1-b:2′,3′-d)furan-8,13-dione]: in data set [1], the “Bleeding in water, O.D.” value is given as “O.D. = 0.01”. Also, the “Photochemical stability ΔE” value in data set [2] was “ΔE = 0.23”.
With `O=C1c2ccccc2C(=O)c2c1oc1c2cc(Cl)c2ccccc21` [5-chlorodinaphtho-(1,2-b:2′,3′-d)furan-7,12-dione], the “Bleeding in water, O.D.” value in data set [1] is reported as “O.D. = 0.02”. Also, the “Photochemical stability ΔE” value in data set [2] is on record as “ΔE = 1.36”.
With `CC(C)Oc1cc2c3c(oc2c2ccccc12)C(=O)c1ccccc1C3=O` [5-isopropyloxydinaphtho-(1,2-b:2′,3′-d)furan-7,12-dione], the “Bleeding in water, O.D.” value in data set [1] was “O.D. = 0.03”. For the same compound, the “Photochemical stability ΔE” value in data set [2] is “ΔE = 0.81”.
